Assay results taken from ChEMBL document CHEMBL1201862, “PubChem BioAssay data set” (2004).
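48-hour exposure; five concentrations; linearly interpolated endpoints. At the GI50, growth is halved.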 Activity calls are given as the source filed them. Rule as the data show it: active = GI50 up to about 1.1 µM and inactive = higher.

Assays:
Test in all cases: DTP human tumour cell line panel, 48 h
786-0 = system: 786-0
A498 = system: A498
A549 = system: A549
ACHN = system: ACHN
BT-549 = system: BT-549
CAKI-1 = system: CAKI-1
CCRF-CEM = system: CCRF-CEM
COLO 205 = system: COLO 205
DU-145 = system: DU-145
EKVX = system: EKVX
HCC 2998 = system: HCC 2998
HCT-116 = system: HCT-116
HCT-15 = system: HCT-15
HL-60 = system: HL-60
HOP-62 = system: HOP-62
HOP-92 = system: HOP-92
Hs-578T = system: Hs-578T
IGROV-1 = system: IGROV-1
K562 = system: K562
KM12 = system: KM12
LOX IMVI = system: LOX IMVI
M14 = system: M14
MCF7 = system: MCF7
MDA-MB-231 = system: MDA-MB-231
MDA-MB-435 = system: MDA-MB-435
MDA-N = system: MDA-N
MOLT-4 = system: MOLT-4
Malme-3M = system: Malme-3M
NCI-H226 = system: NCI-H226
NCI-H23 = system: NCI-H23
NCI-H460 = system: NCI-H460
NCI-H522 = system: NCI-H522
NCI/ADR-RES = system: NCI/ADR-RES
OVCAR-3 = system: OVCAR-3
OVCAR-4 = system: OVCAR-4
OVCAR-5 = system: OVCAR-5
OVCAR-8 = system: OVCAR-8
PC-3 = system: PC-3
RPMI-8226 = system: RPMI-8226
RXF 393 = system: RXF 393
SF-268 = system: SF-268
SF-295 = system: SF-295
SF-539 = system: SF-539
SK-MEL-28 = system: SK-MEL-28
SK-MEL-5 = system: SK-MEL-5
SK-OV-3 = system: SK-OV-3
SN12C = system: SN12C
SNB-19 = system: SNB-19
SNB-75 = system: SNB-75
SR = system: SR
SW-620 = system: SW-620
T47D = system: T47D
TK-10 = system: TK-10
U-251 = system: U-251
UACC-257 = system: UACC-257
UACC-62 = system: UACC-62
UO-31 = system: UO-31
HT-29 = system: HT-29
SK-MEL-2 = system: SK-MEL-2

CC(=O)O[C@H]1C(=O)[C@@]2(C)[C@H]([C@H](OC(=O)C3CCCCC3)[C@]3(O)C[C@H](OC(=O)[C@H](O)[C@@H](NC(=O)C4CCCCC4)C4CCCCC4)C(C)=C1C3(C)C)[C@]1(OC(C)=O)CO[C@@H]1C[C@@H]2O
GI50 (786-0): 17.1 nM (active) | GI50 (A498): 90.2 nM (active) | GI50 (A549): 32.6 nM (active) | GI50 (ACHN): 168 nM (active) | GI50 (BT-549): 55.6 nM (active) | GI50 (CAKI-1): 105 nM (active) | GI50 (CCRF-CEM): 23.4 nM (active) | GI50 (COLO 205): 6.15 nM (active) | GI50 (DU-145): 151 nM (active) | GI50 (EKVX): 5610 nM (inactive) | GI50 (HCC 2998): 44.2 nM (active) | GI50 (HCT-116): 4.39 nM (active) | GI50 (HCT-15): 143 nM | GI50 (HL-60): 5.86 nM (active) | GI50 (HOP-62): 22.2 nM (active) | GI50 (HOP-92): 42.7 nM (active) | GI50 (Hs-578T): 9.62 nM (active) | GI50 (IGROV-1): 27 nM (active) | GI50 (K562): 12.8 nM (active) | GI50 (KM12): 10.1 nM (active) | GI50 (LOX IMVI): 27.2 nM (active) | GI50 (M14): 8.89 nM (active) | GI50 (MCF7): 5.69 nM (active) | GI50 (MDA-MB-231): 33.6 nM (active) | GI50 (MDA-MB-435): 2.56 nM (active) | GI50 (MDA-N): 2.5 nM (active) | GI50 (MOLT-4): 15.1 nM (active) | GI50 (Malme-3M): 32.3 nM (active) | GI50 (NCI-H226): 31.1 nM (active) | GI50 (NCI-H23): < 13.2 nM (active) | GI50 (NCI-H460): 7.23 nM (active) | GI50 (NCI-H522): 6.58 nM (active) | GI50 (NCI/ADR-RES): 1070 nM (active) | GI50 (OVCAR-3): 3.86 nM (active) | GI50 (OVCAR-4): 538 nM (active) | GI50 (OVCAR-5): 22.4 nM (active) | GI50 (OVCAR-8): 22.8 nM (active) | GI50 (PC-3): 16 nM (active) | GI50 (RPMI-8226): 2.5 nM (active) | GI50 (RXF 393): 40.7 nM (active) | GI50 (SF-268): 408 nM (active) | GI50 (SF-295): 32.1 nM (active) | GI50 (SF-539): 36.6 nM (active) | GI50 (SK-MEL-28): 479 nM (active) | GI50 (SK-MEL-5): 14.7 nM (active) | GI50 (SK-OV-3): 29 nM (active) | GI50 (SN12C): 94.2 nM (active) | GI50 (SNB-19): 57 nM (active) | GI50 (SNB-75): 50.8 nM (active) | GI50 (SR): 8.2 nM (active) | GI50 (SW-620): 10 nM (active) | GI50 (T47D): 21.9 nM (active) | GI50 (TK-10): 45.1 nM (active) | GI50 (U-251): 11.7 nM (active) | GI50 (UACC-257): 38.9 nM (active) | GI50 (UACC-62): 16.3 nM (active) | GI50 (UO-31): 344 nM (active)

CCCC1NC(C#N)(C#N)C(CCC)NC1(C#N)C#N (stereo not drawn)
GI50 (786-0): 32.6 nM (active) | GI50 (A498): 21700 nM (inactive) | GI50 (A549): 14300 nM (inactive) | GI50 (ACHN): 296 nM (active) | GI50 (BT-549): 1120 nM (inactive) | GI50 (CAKI-1): 57.3 nM (active) | GI50 (CCRF-CEM): < 10 nM (active) | GI50 (COLO 205): < 10 nM (active) | GI50 (DU-145): 3780 nM (inactive) | GI50 (EKVX): 42800 nM (inactive) | GI50 (HCC 2998): 7960 nM (inactive) | GI50 (HCT-116): < 15.8 nM (active) | GI50 (HCT-15): 105 nM | GI50 (HL-60): < 10.7 nM (active) | GI50 (HOP-62): 35800 nM (inactive) | GI50 (HOP-92): 488 nM (active) | GI50 (HT-29): 115 nM (active) | GI50 (Hs-578T): 3070 nM (inactive) | GI50 (IGROV-1): 1420 nM (inactive) | GI50 (K562): 58.9 nM (active) | GI50 (KM12): 9250 nM (inactive) | GI50 (LOX IMVI): 105 nM (active) | GI50 (M14): 126 nM (active) | GI50 (MCF7): 68.9 nM (active) | GI50 (MDA-MB-231): 27800 nM (inactive) | GI50 (MDA-MB-435): 106 nM (active) | GI50 (MDA-N): 285 nM (active) | GI50 (MOLT-4): < 21.4 nM (active) | GI50 (Malme-3M): 29.7 nM (active) | GI50 (NCI-H226): 22100 nM (inactive) | GI50 (NCI-H23): 2490 nM (inactive) | GI50 (NCI-H460): 14000 nM (inactive) | GI50 (NCI-H522): < 10.5 nM (active) | GI50 (NCI/ADR-RES): 243 nM (active) | GI50 (OVCAR-3): 76 nM (active) | GI50 (OVCAR-4): 1180 nM (inactive) | GI50 (OVCAR-5): 24700 nM (inactive) | GI50 (OVCAR-8): 149 nM (active) | GI50 (PC-3): 318 nM (active) | GI50 (RPMI-8226): < 10 nM (active) | GI50 (SF-268): 1310 nM (inactive) | GI50 (SF-295): 22700 nM (inactive) | GI50 (SF-539): 197 nM (active) | GI50 (SK-MEL-28): 44900 nM (inactive) | GI50 (SK-MEL-2): 52100 nM (inactive) | GI50 (SK-MEL-5): 1440 nM (inactive) | GI50 (SK-OV-3): 35900 nM (inactive) | GI50 (SN12C): 1110 nM (active) | GI50 (SNB-19): 40900 nM (inactive) | GI50 (SNB-75): 2170 nM (inactive) | GI50 (SR): < 17.3 nM (active) | GI50 (SW-620): < 12 nM (active) | GI50 (T47D): 946 nM (active) | GI50 (TK-10): 1010 nM (active) | GI50 (U-251): 6460 nM (inactive) | GI50 (UACC-257): > 100000 nM (inactive) | GI50 (UACC-62): 17400 nM (inactive) | GI50 (UO-31): 78.7 nM (active)

O=C1c2ccccc2C(=O)c2c(NCC3CO3)ccc(NCC3CO3)c21 (stereo not drawn)
GI50 (786-0): 766 nM (active) | GI50 (A498): 33300 nM (inactive) | GI50 (A549): 2400 nM (inactive) | GI50 (ACHN): 303 nM (active) | GI50 (BT-549): 3150 nM (inactive) | GI50 (CAKI-1): 687 nM (active) | GI50 (CCRF-CEM): < 10 nM (active) | GI50 (COLO 205): 4990 nM (inactive) | GI50 (DU-145): 3580 nM (inactive) | GI50 (EKVX): > 32200 nM (inactive) | GI50 (HCC 2998): 9100 nM (inactive) | GI50 (HCT-116): 171 nM (active) | GI50 (HCT-15): 3470 nM | GI50 (HL-60): < 10 nM (active) | GI50 (HOP-62): 1550 nM (inactive) | GI50 (HOP-92): 10300 nM (inactive) | GI50 (HT-29): 1880 nM (inactive) | GI50 (Hs-578T): 3720 nM (inactive) | GI50 (IGROV-1): 3780 nM (inactive) | GI50 (K562): 128 nM (active) | GI50 (KM12): 3850 nM (inactive) | GI50 (LOX IMVI): 13.2 nM (active) | GI50 (M14): 682 nM (active) | GI50 (MCF7): 112 nM (active) | GI50 (MDA-MB-231): 3300 nM (inactive) | GI50 (MDA-MB-435): 1220 nM (inactive) | GI50 (MDA-N): 1300 nM (inactive) | GI50 (MOLT-4): 11.9 nM (active) | GI50 (Malme-3M): 5300 nM (inactive) | GI50 (NCI-H226): 8590 nM (inactive) | GI50 (NCI-H23): 1490 nM (inactive) | GI50 (NCI-H460): 2390 nM (inactive) | GI50 (NCI-H522): 5240 nM (inactive) | GI50 (NCI/ADR-RES): 1600 nM (inactive) | GI50 (OVCAR-3): 4540 nM (inactive) | GI50 (OVCAR-4): 10900 nM (inactive) | GI50 (OVCAR-5): 4540 nM (inactive) | GI50 (OVCAR-8): 630 nM (active) | GI50 (PC-3): 1910 nM (inactive) | GI50 (RPMI-8226): 2760 nM (inactive) | GI50 (RXF 393): 2210 nM (inactive) | GI50 (SF-268): 254 nM (active) | GI50 (SF-295): 3590 nM (inactive) | GI50 (SF-539): 1910 nM (inactive) | GI50 (SK-MEL-28): 2710 nM (inactive) | GI50 (SK-MEL-5): 1680 nM (inactive) | GI50 (SK-OV-3): 10400 nM (inactive) | GI50 (SN12C): 456 nM (active) | GI50 (SNB-19): 15100 nM (inactive) | GI50 (SNB-75): 26700 nM (inactive) | GI50 (SR): 22.8 nM (active) | GI50 (SW-620): 1220 nM (inactive) | GI50 (T47D): 4200 nM (inactive) | GI50 (TK-10): 19000 nM (inactive) | GI50 (U-251): 1650 nM (inactive) | GI50 (UACC-257): 7080 nM (inactive) | GI50 (UACC-62): 1080 nM (active) | GI50 (UO-31): 1870 nM (inactive)
